# Laboratory results published in patent US20230406885A1, “CYCLIC PEPTIDES FOR TRAPPING INTERLEUKIN-1 BETA” (MERCK SHARP & DOHME LLC, priority 2022, published 2023).
# Where a SMILES comes first, the peptide text is derived from it. [ ]: non-standard residue; d: D form. Bip(4'-COOH) = N[C@@H](Cc1ccc(-c2ccc(C(=O)O)cc2)cc1)C(=O)O; 1Nal(3S-Me) = C[C@@H](c1cccc2ccccc12)[C@H](N)C(=O)O; Ala(indazol-1-yl) = N[C@@H](Cn1ncc2ccccc21)C(=O)O; Ala(indolin-1-yl) = N[C@@H](CN1CCc2ccccc21)C(=O)O; Phe(4-COOH) = N[C@@H](Cc1ccc(C(=O)O)cc1)C(=O)O; h3Pal(5-CN) = N#Cc1cncc(CC[C@H](N)C(=O)O)c1; Pro(4R-NH2) = N[C@H]1CN[C@H](C(=O)O)C1; 1Nal = N[C@@H](Cc1cccc2ccccc12)C(=O)O; Ala(4-THP) = N[C@@H](CC1CCOCC1)C(=O)O; hTyr = N[C@@H](CCc1ccc(O)cc1)C(=O)O; 4Pal = N[C@@H](Cc1ccncc1)C(=O)O; Orn = NCCC[C@H](N)C(=O)O; dNMeA = CN[C@H](C)C(=O)O; Dab = NCC[C@H](N)C(=O)O; Dap = NC[C@H](N)C(=O)O; Aib = CC(C)(N)C(=O)O
# Biological target: T1, Recombinant human IL-1β (Homo sapiens, UniProt P01584)
# T1 construct: purchased BioLegend 579404
# T1 sequence (P01584 117-269): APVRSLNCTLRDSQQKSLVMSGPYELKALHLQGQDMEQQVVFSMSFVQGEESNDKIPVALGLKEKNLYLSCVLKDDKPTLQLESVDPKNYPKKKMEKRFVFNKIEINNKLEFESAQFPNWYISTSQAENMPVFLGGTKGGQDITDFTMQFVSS
# Assay: IL-6 assay in MRC5 cells: inhibition of IL-1β induced IL-6 secretion (AlphaLISA)
# Assay type: cell-based
# Conditions: inhibition of IL-1β induced IL-6 secretion in MRC5 cells; IL-1β pre-incubated 1 hour with compound; read-out: MRC5 IC50
# Procedure: Procedure for IL-6 Assay in MRC5 Cells
# The inhibition of IL-1β induced IL-6 secretion was evaluated in MRC5 cells. Recombinant human IL-1β (BioLegend 579404) at 2×EC80 concentration was prepared in seeding medium, EMEM (ATCC 30-2003) with 0.025% BSA (Sigma A9576), 1× penicillin/streptomycin (Gibco 15070-063), 1×NEAA (Gibco 11140-050), 1× GlutaMax (Gibco 35050-061), and 1× sodium pyruvate (Gibco 11360-070). 20 μL of IL-1β was added to a 384-well collagen-coated plate (Corning 354664) and pre-incubated at ambient temperature for 1 hour with 200 nL of compound dispensed using an ECHO 555 liquid handler. Human lung fibroblast MRC5 cells (ATCC CCL-171) were added at a density of 3000 cells/20 μL per well. The cells were prepared by passaging three times in growth medium, EMEM (ATCC 30-2003) with 10% fetal bovine serum (Gibco 16140-071), 1× penicillin/streptomycin (Gibco 15070-063), 1×NEAA (Gibco 11140-050), 1× GlutaMax (Gibco 35050-061), and 1× sodium pyruvate (Gibco 11360-070) in collagen-coated T175 flasks (Greiner 661950) and harvested in seeding medium after 5 minutes of 0.25% trypsin-EDTA (Gibco 25200-056) digestion. The 384-well collagen-coated plate, containing a final volume of 40 μL, was incubated at 37° C., 5% CO2 overnight. 5 μL of the conditioned medium was transferred to a 384-well AlphaLISA plate (PerkinElmer 6005350) for detection of IL-6 using the human AlphaLISA IL-6 kit (PerkinElmer AL223F) as per the manufacturer's protocol. 20 μL of the acceptor bead/biotinylated antibody mix was added to the 384-well AlphaLISA plate and incubated for 1 hour at ambient temperature. The donor bead mix was protected from light and 25 μL was added to the plate and incubated for 30 minutes at ambient temperature. The AlphaLISA plate was read on an EnVision multimode plate reader (Perkin Elmer model 2104) using the AlphaScreen setting (laser exc at 680 nm and emis at 570 nm). Dose response curves and IC50 values were analyzed using a 4-parameter logistic equation in Spotfire software (Tibco, Palo Alto, CA).
row,Structure (SMILES),IC50
1,C[C@@H]1C(=O)NCC(=O)N[C@@H](Cc2ccc(-c3ccc(C(=O)O)cc3)cc2)C(=O)N[C@@H](Cn2ncc3ccccc32)C(=O)N[C@@H](CN)C(=O)N[C@H](C)C(=O)N[C@@H](CCc2ccc(O)cc2)C(=O)N[C@@H](Cc2ccc(-c3ccc(C(=O)O)cc3)cc2)C(=O)N[C@@H](Cc2c[nH]c3ccccc23)C(=O)N[C@@H](Cc2ccc(C(=O)O)cc2)C(=O)NCC(=O)N2C[C@H](N)C[C@H]2C(=O)N[C@@H]([C@@H](C)c2cccc3ccccc23)C(=O)N[C@@H](CC(=O)O)C(=O)N1C [Example 13] (cyclo([Bip(4'-COOH)]W[Phe(4-COOH)]G[Pro(4R-NH2)][1Nal(3S-Me)]D[dNMeA]G[Bip(4'-COOH)][Ala(indazol-1-yl)][Dap][dA][hTyr])),0.031 nM
2,C[C@@H]1C(=O)NCC(=O)N[C@@H](Cc2ccc(-c3ccc(C(=O)O)cc3)cc2)C(=O)N[C@@H](CN2CCc3ccccc32)C(=O)N[C@@H](CN)C(=O)N[C@H](C)C(=O)N[C@@H](CCc2ccc(O)cc2)C(=O)N[C@@H](Cc2ccc(-c3ccc(C(=O)O)cc3)cc2)C(=O)N[C@@H](Cc2c[nH]c3ccccc23)C(=O)N[C@@H](Cc2ccc(C(=O)O)cc2)C(=O)NCC(=O)N2C[C@H](N)C[C@H]2C(=O)N[C@@H]([C@@H](C)c2cccc3ccccc23)C(=O)N[C@@H](CC(=O)O)C(=O)N1C [Example 14] (cyclo([Bip(4'-COOH)]W[Phe(4-COOH)]G[Pro(4R-NH2)][1Nal(3S-Me)]D[dNMeA]G[Bip(4'-COOH)][Ala(indolin-1-yl)][Dap][dA][hTyr])),0.0297 nM
3,C[C@@H]1C(=O)NCC(=O)N[C@@H](Cc2ccc(-c3ccc(C(=O)O)cc3)cc2)C(=O)N[C@@H](Cc2cccc3ccccc23)C(=O)N[C@@H](CCN)C(=O)NC(C)(C)C(=O)NCC(=O)N[C@@H](Cc2ccc(-c3ccc(C(=O)O)cc3)cc2)C(=O)N[C@@H](Cc2c[nH]c3ccccc23)C(=O)N[C@@H](Cc2ccc(C(=O)O)cc2)C(=O)NCC(=O)N2C[C@H](N)C[C@H]2C(=O)N[C@@H]([C@@H](C)c2cccc3ccccc23)C(=O)N[C@@H](CC(=O)O)C(=O)N1C [Example 15] (cyclo([Bip(4'-COOH)]W[Phe(4-COOH)]G[Pro(4R-NH2)][1Nal(3S-Me)]D[dNMeA]G[Bip(4'-COOH)][1Nal][Dab][Aib]G)),0.653 nM
4,C[C@@H]1C(=O)NCC(=O)N[C@@H](Cc2ccc(-c3ccc(C(=O)O)cc3)cc2)C(=O)N[C@@H](Cc2cccc3ccccc23)C(=O)N[C@@H](CCN)C(=O)NC(C)(C)C(=O)N[C@@H](CCc2ccc(O)cc2)C(=O)N[C@@H](Cc2ccc(-c3ccc(C(=O)O)cc3)cc2)C(=O)N[C@@H](Cc2c[nH]c3ccccc23)C(=O)N[C@@H](Cc2ccc(C(=O)O)cc2)C(=O)NCC(=O)N2C[C@H](N)C[C@H]2C(=O)N[C@@H]([C@@H](C)c2cccc3ccccc23)C(=O)N[C@@H](CC(=O)O)C(=O)N1C [Example 16] (cyclo([Bip(4'-COOH)]W[Phe(4-COOH)]G[Pro(4R-NH2)][1Nal(3S-Me)]D[dNMeA]G[Bip(4'-COOH)][1Nal][Dab][Aib][hTyr])),0.175 nM
5,C[C@@H]1C(=O)NCC(=O)N[C@@H](Cc2ccc(-c3ccc(C(=O)O)cc3)cc2)C(=O)N[C@@H](Cc2cccc3ccccc23)C(=O)N[C@@H](CN)C(=O)NC(C)(C)C(=O)NCC(=O)N[C@@H](Cc2ccc(-c3ccc(C(=O)O)cc3)cc2)C(=O)N[C@@H](Cc2c[nH]c3ccccc23)C(=O)N[C@@H](Cc2ccc(C(=O)O)cc2)C(=O)NCC(=O)N2C[C@H](N)C[C@H]2C(=O)N[C@@H]([C@@H](C)c2cccc3ccccc23)C(=O)N[C@@H](CC(=O)O)C(=O)N1C [Example 17] (cyclo([Bip(4'-COOH)]W[Phe(4-COOH)]G[Pro(4R-NH2)][1Nal(3S-Me)]D[dNMeA]G[Bip(4'-COOH)][1Nal][Dap][Aib]G)),0.222 nM
6,C[C@@H]1C(=O)NCC(=O)N[C@@H](Cc2ccc(-c3ccc(C(=O)O)cc3)cc2)C(=O)N[C@@H](Cc2cccc3ccccc23)C(=O)N[C@@H](CN)C(=O)NC(C)(C)C(=O)N[C@@H](CCc2cncc(C#N)c2)C(=O)N[C@@H](Cc2ccc(-c3ccc(C(=O)O)cc3)cc2)C(=O)N[C@@H](Cc2c[nH]c3ccccc23)C(=O)N[C@@H](Cc2ccc(C(=O)O)cc2)C(=O)NCC(=O)N2C[C@H](N)C[C@H]2C(=O)N[C@@H]([C@@H](C)c2cccc3ccccc23)C(=O)N[C@@H](CC(=O)O)C(=O)N1C [Example 18] (cyclo([Bip(4'-COOH)]W[Phe(4-COOH)]G[Pro(4R-NH2)][1Nal(3S-Me)]D[dNMeA]G[Bip(4'-COOH)][1Nal][Dap][Aib][h3Pal(5-CN)])),0.0885 nM
7,CC(C)C[C@@H]1NC(=O)[C@H](Cc2cccc3ccccc23)NC(=O)[C@H](Cc2ccc(-c3ccc(C(=O)O)cc3)cc2)NC(=O)CNC(=O)[C@@H](C)N(C)C(=O)[C@H](CC(=O)O)NC(=O)[C@H]([C@@H](C)c2cccc3ccccc23)NC(=O)[C@@H]2C[C@@H](N)CN2C(=O)CNC(=O)[C@H](Cc2ccc(C(=O)O)cc2)NC(=O)[C@H](Cc2c[nH]c3ccccc23)NC(=O)[C@H](Cc2ccc(-c3ccc(C(=O)O)cc3)cc2)NC(=O)CNC(=O)C(C)(C)NC1=O [Example 19] (cyclo([Bip(4'-COOH)]W[Phe(4-COOH)]G[Pro(4R-NH2)][1Nal(3S-Me)]D[dNMeA]G[Bip(4'-COOH)][1Nal]L[Aib]G)),0.118 nM
8,C[C@@H]1C(=O)NCC(=O)N[C@@H](Cc2ccc(-c3ccc(C(=O)O)cc3)cc2)C(=O)N[C@@H](Cc2cccc3ccccc23)C(=O)N[C@@H](CCCN)C(=O)NC(C)(C)C(=O)NCC(=O)N[C@@H](Cc2ccc(-c3ccc(C(=O)O)cc3)cc2)C(=O)N[C@@H](Cc2c[nH]c3ccccc23)C(=O)N[C@@H](Cc2ccc(C(=O)O)cc2)C(=O)NCC(=O)N2C[C@H](N)C[C@H]2C(=O)N[C@@H]([C@@H](C)c2cccc3ccccc23)C(=O)N[C@@H](CC(=O)O)C(=O)N1C [Example 20] (cyclo([Bip(4'-COOH)]W[Phe(4-COOH)]G[Pro(4R-NH2)][1Nal(3S-Me)]D[dNMeA]G[Bip(4'-COOH)][1Nal][Orn][Aib]G)),0.44 nM
9,C[C@@H]1C(=O)NCC(=O)N[C@@H](Cc2ccc(-c3ccc(C(=O)O)cc3)cc2)C(=O)N[C@@H](Cc2ccncc2)C(=O)N[C@@H](CN)C(=O)N[C@H](C)C(=O)N[C@@H](CCc2cncc(C#N)c2)C(=O)N[C@@H](Cc2ccc(-c3ccc(C(=O)O)cc3)cc2)C(=O)N[C@@H](Cc2c[nH]c3ccccc23)C(=O)N[C@@H](Cc2ccc(C(=O)O)cc2)C(=O)NCC(=O)N2C[C@H](N)C[C@H]2C(=O)N[C@@H]([C@@H](C)c2cccc3ccccc23)C(=O)N[C@@H](CC(=O)O)C(=O)N1C [Example 21] (cyclo([Bip(4'-COOH)]W[Phe(4-COOH)]G[Pro(4R-NH2)][1Nal(3S-Me)]D[dNMeA]G[Bip(4'-COOH)][4Pal][Dap][dA][h3Pal(5-CN)])),0.0234 nM
10,C[C@@H]1C(=O)NCC(=O)N[C@@H](Cc2ccc(-c3ccc(C(=O)O)cc3)cc2)C(=O)N[C@@H](Cc2ccncc2)C(=O)N[C@@H](CN)C(=O)N[C@H](C)C(=O)N[C@@H](CCc2ccc(O)cc2)C(=O)N[C@@H](Cc2ccc(-c3ccc(C(=O)O)cc3)cc2)C(=O)N[C@@H](Cc2c[nH]c3ccccc23)C(=O)N[C@@H](Cc2ccc(C(=O)O)cc2)C(=O)NCC(=O)N2C[C@H](N)C[C@H]2C(=O)N[C@@H]([C@@H](C)c2cccc3ccccc23)C(=O)N[C@@H](CC(=O)O)C(=O)N1C [Example 22] (cyclo([Bip(4'-COOH)]W[Phe(4-COOH)]G[Pro(4R-NH2)][1Nal(3S-Me)]D[dNMeA]G[Bip(4'-COOH)][4Pal][Dap][dA][hTyr])),0.0325 nM
11,C[C@@H]1C(=O)NCC(=O)N[C@@H](Cc2ccc(-c3ccc(C(=O)O)cc3)cc2)C(=O)N[C@@H](CC2CCOCC2)C(=O)N[C@@H](CN)C(=O)N[C@H](C)C(=O)N[C@@H](CCc2cncc(C#N)c2)C(=O)N[C@@H](Cc2ccc(-c3ccc(C(=O)O)cc3)cc2)C(=O)N[C@@H](Cc2c[nH]c3ccccc23)C(=O)N[C@@H](Cc2ccc(C(=O)O)cc2)C(=O)NCC(=O)N2C[C@H](N)C[C@H]2C(=O)N[C@@H]([C@@H](C)c2cccc3ccccc23)C(=O)N[C@@H](CC(=O)O)C(=O)N1C [Example 23] (cyclo([Bip(4'-COOH)]W[Phe(4-COOH)]G[Pro(4R-NH2)][1Nal(3S-Me)]D[dNMeA]G[Bip(4'-COOH)][Ala(4-THP)][Dap][dA][h3Pal(5-CN)])),0.0112 nM
12,C[C@@H]1C(=O)NCC(=O)N[C@@H](Cc2ccc(-c3ccc(C(=O)O)cc3)cc2)C(=O)N[C@@H](CC2CCOCC2)C(=O)N[C@@H](CN)C(=O)N[C@H](C)C(=O)N[C@@H](CCc2ccc(O)cc2)C(=O)N[C@@H](Cc2ccc(-c3ccc(C(=O)O)cc3)cc2)C(=O)N[C@@H](Cc2c[nH]c3ccccc23)C(=O)N[C@@H](Cc2ccc(C(=O)O)cc2)C(=O)NCC(=O)N2C[C@H](N)C[C@H]2C(=O)N[C@@H]([C@@H](C)c2cccc3ccccc23)C(=O)N[C@@H](CC(=O)O)C(=O)N1C [Example 24] (cyclo([Bip(4'-COOH)]W[Phe(4-COOH)]G[Pro(4R-NH2)][1Nal(3S-Me)]D[dNMeA]G[Bip(4'-COOH)][Ala(4-THP)][Dap][dA][hTyr])),0.0291 nM
